# Assay results as given in ChEMBL document CHEMBL5537142 (Eur J Med Chem, 2024).
# The source made the active and inactive calls. No cut-off for these calls is given here.
# Tests used:
# MDA-MB-468 [1] = test: Inhibition of cell viability in human MDA-MB-468 cells at 100 uM incubated for 72 hrs by resazurin based assay; assay type: functional
# [2] = Solubility of compound incubated for 5 mins by absorbance based assay; assay type: physicochemical
# MCF7 [3] = test: Inhibition of cell viability in human MCF7 cells at 100 uM incubated for 72 hrs by resazurin based assay; assay type: functional
# MCF7 [4] = test: Induction of cell death in human MCF7 cells at 0.05 to 200 uM incubated for 72 hrs by resazurin based assay; assay type: functional; conditions: dose 0.05-200 µM
# MDA-MB-231 [5] = test: Inhibition of cell viability in human MDA-MB-231 cells at 100 uM incubated for 72 hrs by resazurin based assay; assay type: functional
# MDA-MB-468 [6] = test: Induction of cell death in human MDA-MB-468 cells at 0.05 to 200 uM incubated for 72 hrs by resazurin based assay; assay type: functional; conditions: dose 0.05-200 µM
# MDA-MB-231 [7] = test: Induction of cell death in human MDA-MB-231 cells at 0.05 to 200 uM incubated for 72 hrs by resazurin based assay; assay type: functional; conditions: dose 0.05-200 µM
# [8] = target: T1, Dihydrofolate reductase (Homo sapiens) (UniProt P00374); conditions: MDA-MB-468, dose 10.0 nM, time 24.0 hrs
# T1 sequence (whole entry): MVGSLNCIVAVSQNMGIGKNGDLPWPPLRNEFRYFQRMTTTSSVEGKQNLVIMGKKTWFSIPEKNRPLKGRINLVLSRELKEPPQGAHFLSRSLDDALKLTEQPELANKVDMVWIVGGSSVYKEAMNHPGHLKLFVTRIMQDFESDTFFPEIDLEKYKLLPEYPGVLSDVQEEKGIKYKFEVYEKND
# [9] = target: T1, Dihydrofolate reductase (Homo sapiens); conditions: MDA-MB-468, dose 1.0 nM, time 24.0 hrs
# MDA-MB-468 [10] = test: Cytotoxicity against human MDA-MB-468 cells assessed as cell viability at 100 uM incubated for 72 hrs by resazurin based assay relative to control; assay type: functional; conditions: read-out: Activity
# MDA-MB-231 [11] = test: Inhibition of cell viability in human MDA-MB-231 cells upto 100 uM incubated for 72 hrs by resazurin based assay relative to control; assay type: functional; conditions: up to 100 µM
# MDA-MB-231 [12] = test: Cytotoxicity against human MDA-MB-231 cells assessed as cell viability at 100 uM incubated for 72 hrs by resazurin based assay relative to control; assay type: functional; conditions: read-out: Activity
# MCF7 [13] = test: Inhibition of cell viability in human MCF7 cells upto 100 uM incubated for 72 hrs by resazurin based assay relative to control; assay type: functional; conditions: up to 100 µM
# MCF7 [14] = test: Cytotoxicity against human MCF7 cells assessed as cell viability at 100 uM incubated for 72 hrs by resazurin based assay relative to control; assay type: functional; conditions: read-out: Activity
# MDA-MB-468 [15] = test: Inhibition of cell viability in human MDA-MB-468 cells upto 100 uM incubated for 72 hrs by resazurin based assay relative to control; assay type: functional; conditions: up to 100 µM
SMILES,inhibition (MDA-MB-468 [1]),solubility at 5 min [2],inhibition (MCF7 [3]),inhibition (MDA-MB-231 [5]),other results
CC(C)(C)c1ccc(-c2cnc(N)nc2N)cc1,Active,–,–,–,–
Nc1ncc(-c2ccc(Cl)c([N+](=O)[O-])c2)c(N)n1,–,> 100 µM,–,–,–
CN(Cc1ccccc1)c1ccc(-c2cnc(N)nc2N)cc1[N+](=O)[O-],–,~10 µM,inactive,–,–
NCCCCCCNc1ccc(-c2cnc(N)nc2N)cc1[N+](=O)[O-],Active,> 100 µM,Active,Active,Activity (MCF7 [4]): Active; Activity (MDA-MB-468 [6]): Active; Activity (MDA-MB-231 [7]): Active
CCc1nc(N)nc(N)c1-c1ccc(Cl)cc1 [PYRIMETHAMINE],–,> 100 µM,–,–,inhibition [8]: Active; inhibition [9]: 40%; viability at 100 µM (MDA-MB-468 [10]): ~50%; inhibition (INH) (MDA-MB-231 [11]): ~50%; viability at 100 µM (MDA-MB-231 [12]): ~50%; inhibition (INH) (MCF7 [13]): ~50%; viability at 100 µM (MCF7 [14]): ~50%; inhibition (INH) (MDA-MB-468 [15]): ~50%
CC(C)c1ccc(-c2cnc(N)nc2N)cc1,–,> 100 µM,inactive,–,–
COc1cc(-c2cnc(N)nc2N)ccc1C,–,> 100 µM,–,–,–
COc1ccc(CNc2ccc(-c3cnc(N)nc3N)cc2[N+](=O)[O-])cc1,Active,~10 µM,Active,Active,Activity (MCF7 [4]): Active; Activity (MDA-MB-468 [6]): Active; Activity (MDA-MB-231 [7]): Active
Nc1ncc(-c2cccc(Cl)c2)c(N)n1,–,> 100 µM,–,–,–
Nc1ncc(-c2ccc(F)cc2Br)c(N)n1,inactive,–,inactive,inactive,–
Nc1ncc(-c2ccc(Cl)c(F)c2)c(N)n1,–,–,inactive,–,–
Cc1ccc(-c2cnc(N)nc2N)cc1,–,–,inactive,–,–
Nc1ncc(-c2ccc3ccccc3c2)c(N)n1,Active,> 100 µM,Active,Active,Activity (MCF7 [4]): Active; Activity (MDA-MB-468 [6]): Active; Activity (MDA-MB-231 [7]): Active
Nc1ncc(-c2ccc(N3CCCC3)c([N+](=O)[O-])c2)c(N)n1,Active,> 100 µM,Active,Active,Activity (MCF7 [4]): Active; Activity (MDA-MB-468 [6]): Active; Activity (MDA-MB-231 [7]): Active
Nc1ncc(-c2ccc(Cl)c(Cl)c2)c(N)n1,–,> 100 µM,–,–,–
